What was measured:
Thyroid Hormone = assay: Lead Profiling Screen, Eurofins Panlabs; type: binding; details: rat
[1] = Binding in brain homogenate from rat (equilibrium dialysis); type: in vitro ADME; details: rat, brain homogenate, rat brain homogenates, read-out: Rat fu,brain
Experimental: transferred to the corresponding wells of new daughter plates (96-shallow-well, V bottom) containing water (Milli-Q, 60 µL/well), and the plates were sealed in preparation for LC-MS/MS analysis (see below). fu was calculated as (analyte to IS MS peak area ratio from Trans-buffer side) / (analyte to IS MS peak area ratio from Cis-plasma side). Mean values for each species were calculated from 3 replicates.
Binding in brain homogenate from rat.
Determination of fraction unbound (f u) in brain homogenate from rat was conducted using the same methodology and procedure than described for plasma protein binding assay with the following modifications: 1) a final compound concentration of 1 μM was used, 2) naïve rat brains were homogenized in DPBS (1:3 composition of brain: DPBS, w/w) using a Mini-Bead Beater™ machine in order to obtain […]
The diluted fraction unbound (f u2) in brain was calculated as (analyte to IS MS peak area ratio from Trans-buffer side) / (analyte to IS MS peak area ratio from Cis-brain homogenate side). Undiluted fraction unbound for the brain was calculated using the following equation: […]
Mean values for each species were calculated from 3 replicates. […]

[2] = biological target: Nicotinic Acetylcholine α3β4 (Homo sapiens, UniProt P30926+P32297); assay: Lead Profiling Screen, Eurofins Panlabs; type: binding; details: Nicotinic Acetylcholine α3β4, hum, read-out: % inh at 10 μM
Histamine H3 = Histamine H3 (Homo sapiens, UniProt Q9Y5N1); assay: Lead Profiling Screen, Eurofins Panlabs; type: binding; details: Histamine H3, hum, read-out: % inh at 10 μM
Source text: (§1) Nonetheless, as a non-aryl/heterobiaryl acetylene mGlu5 NAM with an encouraging in vivo rodent PK profile, we wished to further assess VU6043653 as a novel chemotype. Therefore, we compared metabolites in multiple species to better understand species differences in clearance and metabolism. […] Consistent with the high plasma clearance observed in dogs, high turnover was observed more so in dog hepatocytes than any other species tested (see the Supporting Information for additional details and results). To further evaluate our novel chemotype, the off-target and safety/toxicity profiles for this compound were further investigated.
(§2) Table S2. Lead Profiling Screen – Eurofins Panlabs for VU6043653.

Cannabinoid CB1 = Cannabinoid CB1 (Homo sapiens, UniProt P21554); assay: Lead Profiling Screen, Eurofins Panlabs; type: binding; details: Cannabinoid CB1, hum, read-out: % inh at 10 μM
Source text: as §1, §2

Histamine H2 = Histamine H2 (Homo sapiens, UniProt P25021); assay: Lead Profiling Screen, Eurofins Panlabs; type: binding; details: Histamine H2, hum, read-out: % inh at 10 μM
Source text: as §1, §2

Adrenergic α1A = Adrenergic α1A (Homo sapiens, UniProt P35348); assay: Lead Profiling Screen, Eurofins Panlabs; type: binding; details: hum, read-out: % inh at 10 μM
Source text: as §1, §2

Histamine H1 = Histamine H1 (Homo sapiens, UniProt P35367); assay: Lead Profiling Screen, Eurofins Panlabs; type: binding; details: Histamine H1, hum, read-out: % inh at 10 μM
Source text: as §1, §2

Dopamine D3 = Dopamine D3 (Homo sapiens, UniProt P35462); assay: Lead Profiling Screen, Eurofins Panlabs; type: binding; details: Dopamine D3, hum, read-out: % inh at 10 μM
Source text: as §1, §2

Bradykinin B1 = Bradykinin B1 (Homo sapiens, UniProt P46663); assay: Lead Profiling Screen, Eurofins Panlabs; type: binding; details: Bradykinin B1, hum, read-out: % inh at 10 μM
Source text: as §1, §2

Adrenergic α2A = Adrenergic α2A (Homo sapiens, UniProt P08913); assay: Lead Profiling Screen, Eurofins Panlabs; type: binding; details: hum, read-out: % inh at 10 μM
Source text: as §1, §2

Dopamine D1 = Dopamine D1 (Homo sapiens, UniProt P21728); assay: Lead Profiling Screen, Eurofins Panlabs; type: binding; details: Dopamine D1, hum, read-out: % inh at 10 μM
Source text: as §1, §2

Adrenergic α1B = Adrenergic α1B (Homo sapiens, UniProt P35368); assay: Lead Profiling Screen, Eurofins Panlabs; type: binding; details: hum, read-out: % inh at 10 μM
Source text: as §1, §2

Glucocorticoid = Glucocorticoid (Homo sapiens, UniProt P04150); assay: Lead Profiling Screen, Eurofins Panlabs; type: binding; details: hum, read-out: % inh at 10 μM
Source text: as §1, §2

Bradykinin B2 = Bradykinin B2 (Homo sapiens, UniProt P30411); assay: Lead Profiling Screen, Eurofins Panlabs; type: binding; details: Bradykinin B2, hum, read-out: % inh at 10 μM
Source text: as §1, §2

Dopamine D2S = Dopamine D2S (Homo sapiens, UniProt P14416); assay: Lead Profiling Screen, Eurofins Panlabs; type: binding; details: hum, read-out: % inh at 10 μM
Source text: as §1, §2

Estrogen Erα = Estrogen Erα (Homo sapiens, UniProt P03372); assay: Lead Profiling Screen, Eurofins Panlabs; type: binding; details: hum, read-out: % inh at 10 μM
Source text: as §1, §2

Dopamine D4.4 = Dopamine D4.4 (Homo sapiens, UniProt P21917); assay: Lead Profiling Screen, Eurofins Panlabs; type: binding; details: Dopamine D4.4, hum, read-out: % inh at 10 μM
Source text: as §1, §2

GABAB1A = GABAB1A (Homo sapiens, UniProt Q9UBS5); assay: Lead Profiling Screen, Eurofins Panlabs; type: binding; details: hum, read-out: % inh at 10 μM
Source text: as §1, §2

Adrenergic α1D = Adrenergic α1D (Homo sapiens, UniProt P25100); assay: Lead Profiling Screen, Eurofins Panlabs; type: binding; details: hum, read-out: % inh at 10 μM
Source text: as §1, §2

Endothelin ETB = Endothelin ETB (Homo sapiens, UniProt P24530); assay: Lead Profiling Screen, Eurofins Panlabs; type: binding; details: hum, read-out: % inh at 10 μM
Source text: as §1, §2

Adrenergic β2 = Adrenergic β2 (Homo sapiens, UniProt P07550); assay: Lead Profiling Screen, Eurofins Panlabs; type: binding; details: Adrenergic β2, hum, read-out: % inh at 10 μM
Source text: as §1, §2

Adrenergic β1 = Adrenergic β1 (Homo sapiens, UniProt P08588); assay: Lead Profiling Screen, Eurofins Panlabs; type: binding; details: Adrenergic β1, hum, read-out: % inh at 10 μM
Source text: as §1, §2

Endothelin ETA = Endothelin ETA (Homo sapiens, UniProt P25101); assay: Lead Profiling Screen, Eurofins Panlabs; type: binding; details: hum, read-out: % inh at 10 μM
Source text: as §1, §2

Adenosine A1 = Adenosine A1 (Homo sapiens, UniProt P30542); assay: Lead Profiling Screen, Eurofins Panlabs; type: binding; details: Adenosine A1, hum, read-out: % inh at 10 μM
Source text: as §1, §2

Prostanoid EP4 = Prostanoid EP4 (Homo sapiens, UniProt P35408); assay: Lead Profiling Screen, Eurofins Panlabs; type: binding; details: Prostanoid EP4, hum, read-out: % inh at 10 μM
CYP 3A4 = biological target: T1, CYP 3A4 (Homo sapiens, UniProt P08684); assay: P450 inhibition in pooled human liver microsomes; type: in vitro ADME; details: pooled HLM, NADPH, CYP-specific probe substrates; listed as VU6043653
T1 construct: from tissue; host or cells: pooled human liver microsomes (per the earlier reading)

[3] = biological target: Nicotinic Acetylcholine α1, Bungarotoxin (Homo sapiens, UniProt P02708+P07510+Q07001); assay: biochemical; type: binding; details: read-out: % inh at 10 μM
Nicotinic Acetylcholine α1, Bungarotoxin, sequence (P07510 23-517): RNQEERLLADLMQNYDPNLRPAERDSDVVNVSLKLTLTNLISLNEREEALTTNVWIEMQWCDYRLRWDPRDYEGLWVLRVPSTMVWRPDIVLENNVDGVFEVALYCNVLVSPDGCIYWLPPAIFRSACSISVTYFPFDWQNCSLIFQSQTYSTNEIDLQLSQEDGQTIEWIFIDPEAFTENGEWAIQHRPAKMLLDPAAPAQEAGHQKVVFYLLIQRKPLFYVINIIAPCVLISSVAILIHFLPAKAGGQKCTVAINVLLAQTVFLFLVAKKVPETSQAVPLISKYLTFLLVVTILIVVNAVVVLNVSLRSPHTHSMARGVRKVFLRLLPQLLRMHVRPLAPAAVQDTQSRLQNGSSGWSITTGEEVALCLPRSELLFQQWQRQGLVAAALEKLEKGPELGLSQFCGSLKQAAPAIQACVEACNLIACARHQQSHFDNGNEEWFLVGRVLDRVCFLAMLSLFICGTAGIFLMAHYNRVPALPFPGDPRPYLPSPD
Nicotinic Acetylcholine α1, Bungarotoxin, sequence (P11230 24-501, further chain): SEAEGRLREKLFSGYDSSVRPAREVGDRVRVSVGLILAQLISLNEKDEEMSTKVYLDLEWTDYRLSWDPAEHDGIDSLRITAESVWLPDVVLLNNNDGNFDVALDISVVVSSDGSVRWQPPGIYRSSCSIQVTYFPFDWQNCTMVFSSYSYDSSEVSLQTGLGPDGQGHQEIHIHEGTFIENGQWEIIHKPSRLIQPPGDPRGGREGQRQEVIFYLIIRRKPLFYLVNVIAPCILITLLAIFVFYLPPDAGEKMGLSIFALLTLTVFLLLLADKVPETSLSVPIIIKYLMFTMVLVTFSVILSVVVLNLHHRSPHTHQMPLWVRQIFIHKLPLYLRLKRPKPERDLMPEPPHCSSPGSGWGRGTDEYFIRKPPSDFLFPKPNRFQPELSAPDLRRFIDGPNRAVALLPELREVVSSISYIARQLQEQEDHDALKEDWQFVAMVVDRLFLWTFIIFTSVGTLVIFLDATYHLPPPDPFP
Nicotinic Acetylcholine α1, Bungarotoxin, sequence (Q07001 22-517): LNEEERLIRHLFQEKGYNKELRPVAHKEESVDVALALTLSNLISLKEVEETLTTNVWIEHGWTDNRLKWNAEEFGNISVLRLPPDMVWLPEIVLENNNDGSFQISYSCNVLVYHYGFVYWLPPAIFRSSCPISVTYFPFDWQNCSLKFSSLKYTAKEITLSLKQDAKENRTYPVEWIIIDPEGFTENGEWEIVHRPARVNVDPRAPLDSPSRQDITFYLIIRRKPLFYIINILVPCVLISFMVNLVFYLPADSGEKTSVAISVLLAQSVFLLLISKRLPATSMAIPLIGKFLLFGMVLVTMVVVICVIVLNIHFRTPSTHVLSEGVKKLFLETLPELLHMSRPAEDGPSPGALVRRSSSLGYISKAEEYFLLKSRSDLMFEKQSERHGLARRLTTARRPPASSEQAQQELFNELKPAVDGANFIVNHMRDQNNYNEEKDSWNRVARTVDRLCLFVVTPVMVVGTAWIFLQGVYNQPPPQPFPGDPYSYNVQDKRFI
Nicotinic Acetylcholine α1, Bungarotoxin, sequence (P02708 21-457): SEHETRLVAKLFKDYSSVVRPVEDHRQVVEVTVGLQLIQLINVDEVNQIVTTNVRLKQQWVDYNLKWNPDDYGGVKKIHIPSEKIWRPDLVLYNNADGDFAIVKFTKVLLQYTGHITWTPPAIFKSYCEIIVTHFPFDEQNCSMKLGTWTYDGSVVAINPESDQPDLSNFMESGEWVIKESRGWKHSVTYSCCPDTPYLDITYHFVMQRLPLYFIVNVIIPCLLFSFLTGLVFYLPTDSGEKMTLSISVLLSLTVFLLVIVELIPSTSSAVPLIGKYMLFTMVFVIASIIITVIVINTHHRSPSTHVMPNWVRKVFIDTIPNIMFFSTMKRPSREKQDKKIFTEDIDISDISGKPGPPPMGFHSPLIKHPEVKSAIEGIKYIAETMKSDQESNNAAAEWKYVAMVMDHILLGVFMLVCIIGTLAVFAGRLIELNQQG

T1 sequence (P08684 whole entry): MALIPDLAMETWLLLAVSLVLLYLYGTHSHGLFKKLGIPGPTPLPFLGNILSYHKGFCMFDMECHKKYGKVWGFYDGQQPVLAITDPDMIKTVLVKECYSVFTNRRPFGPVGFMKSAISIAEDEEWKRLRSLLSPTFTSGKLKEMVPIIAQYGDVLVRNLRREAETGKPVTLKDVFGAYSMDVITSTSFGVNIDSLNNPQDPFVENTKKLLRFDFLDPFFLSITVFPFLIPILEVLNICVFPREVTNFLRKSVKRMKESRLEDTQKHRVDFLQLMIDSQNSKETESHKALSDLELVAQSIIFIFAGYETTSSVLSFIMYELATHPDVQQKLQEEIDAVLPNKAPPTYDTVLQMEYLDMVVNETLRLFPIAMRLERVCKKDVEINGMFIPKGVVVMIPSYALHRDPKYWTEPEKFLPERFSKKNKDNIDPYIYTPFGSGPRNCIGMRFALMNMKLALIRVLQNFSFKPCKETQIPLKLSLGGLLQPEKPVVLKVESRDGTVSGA
GABAB1A, sequence (Q9UBS5 15-961 limits assumed): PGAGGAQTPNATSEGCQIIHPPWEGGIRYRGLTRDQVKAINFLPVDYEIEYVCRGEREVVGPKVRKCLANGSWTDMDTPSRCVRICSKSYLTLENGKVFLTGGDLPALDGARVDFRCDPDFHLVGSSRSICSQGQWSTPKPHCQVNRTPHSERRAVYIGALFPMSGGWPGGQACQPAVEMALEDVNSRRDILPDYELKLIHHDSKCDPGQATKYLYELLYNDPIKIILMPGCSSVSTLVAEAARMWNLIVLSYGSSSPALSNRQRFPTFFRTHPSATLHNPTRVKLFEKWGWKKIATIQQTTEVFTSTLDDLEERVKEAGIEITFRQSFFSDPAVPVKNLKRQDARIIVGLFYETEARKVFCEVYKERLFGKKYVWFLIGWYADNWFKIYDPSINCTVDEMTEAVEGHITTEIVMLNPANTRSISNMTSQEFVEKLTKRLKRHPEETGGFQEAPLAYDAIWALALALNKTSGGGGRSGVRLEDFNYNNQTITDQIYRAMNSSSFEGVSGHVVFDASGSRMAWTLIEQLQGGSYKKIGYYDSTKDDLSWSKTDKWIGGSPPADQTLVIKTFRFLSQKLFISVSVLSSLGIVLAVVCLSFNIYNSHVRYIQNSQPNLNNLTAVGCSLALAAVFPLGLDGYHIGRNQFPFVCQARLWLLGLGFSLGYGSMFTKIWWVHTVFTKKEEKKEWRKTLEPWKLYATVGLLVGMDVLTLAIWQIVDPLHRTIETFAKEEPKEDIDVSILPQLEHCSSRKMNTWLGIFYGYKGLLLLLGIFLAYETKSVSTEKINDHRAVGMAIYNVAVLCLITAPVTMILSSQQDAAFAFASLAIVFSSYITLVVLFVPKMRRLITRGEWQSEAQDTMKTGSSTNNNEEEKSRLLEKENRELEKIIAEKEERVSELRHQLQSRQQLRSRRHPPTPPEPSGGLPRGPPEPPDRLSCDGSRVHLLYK
Prostanoid EP4, sequence (P35408 whole entry): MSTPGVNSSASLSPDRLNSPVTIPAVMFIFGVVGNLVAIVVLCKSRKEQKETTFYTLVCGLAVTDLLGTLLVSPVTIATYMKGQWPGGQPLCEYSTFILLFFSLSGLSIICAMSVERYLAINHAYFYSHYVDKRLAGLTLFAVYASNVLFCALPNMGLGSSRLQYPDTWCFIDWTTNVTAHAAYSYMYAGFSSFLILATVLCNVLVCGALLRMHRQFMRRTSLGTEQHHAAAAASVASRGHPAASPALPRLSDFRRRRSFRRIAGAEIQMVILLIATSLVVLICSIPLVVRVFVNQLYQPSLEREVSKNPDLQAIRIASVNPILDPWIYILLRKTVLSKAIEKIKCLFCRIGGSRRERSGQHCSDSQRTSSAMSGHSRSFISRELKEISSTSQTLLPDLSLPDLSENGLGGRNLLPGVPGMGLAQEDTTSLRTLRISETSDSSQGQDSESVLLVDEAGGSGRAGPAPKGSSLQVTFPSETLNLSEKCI
Histamine H3, sequence (Q9Y5N1 whole entry): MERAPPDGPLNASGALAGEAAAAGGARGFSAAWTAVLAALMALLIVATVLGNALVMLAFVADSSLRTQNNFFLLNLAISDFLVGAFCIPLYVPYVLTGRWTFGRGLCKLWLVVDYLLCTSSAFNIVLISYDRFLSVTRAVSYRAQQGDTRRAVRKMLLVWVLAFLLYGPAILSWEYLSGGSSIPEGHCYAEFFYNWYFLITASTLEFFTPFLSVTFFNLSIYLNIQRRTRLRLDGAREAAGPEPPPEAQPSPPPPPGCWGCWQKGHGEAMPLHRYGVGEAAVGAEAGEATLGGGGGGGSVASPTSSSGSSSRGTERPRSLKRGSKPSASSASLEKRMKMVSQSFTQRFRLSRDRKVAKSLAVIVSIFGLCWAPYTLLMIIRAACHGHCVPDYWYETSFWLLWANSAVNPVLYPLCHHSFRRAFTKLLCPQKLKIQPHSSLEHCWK
Bradykinin B1, sequence (P46663 whole entry): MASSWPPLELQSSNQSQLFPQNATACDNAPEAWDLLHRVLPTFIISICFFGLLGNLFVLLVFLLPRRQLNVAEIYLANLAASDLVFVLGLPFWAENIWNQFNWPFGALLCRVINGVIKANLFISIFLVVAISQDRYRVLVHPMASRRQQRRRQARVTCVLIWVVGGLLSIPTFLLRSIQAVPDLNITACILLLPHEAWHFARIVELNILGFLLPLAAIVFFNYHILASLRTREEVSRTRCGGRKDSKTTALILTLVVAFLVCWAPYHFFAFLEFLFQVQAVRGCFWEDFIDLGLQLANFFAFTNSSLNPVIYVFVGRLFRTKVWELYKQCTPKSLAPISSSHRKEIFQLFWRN
Adenosine A1, sequence (P30542 whole entry): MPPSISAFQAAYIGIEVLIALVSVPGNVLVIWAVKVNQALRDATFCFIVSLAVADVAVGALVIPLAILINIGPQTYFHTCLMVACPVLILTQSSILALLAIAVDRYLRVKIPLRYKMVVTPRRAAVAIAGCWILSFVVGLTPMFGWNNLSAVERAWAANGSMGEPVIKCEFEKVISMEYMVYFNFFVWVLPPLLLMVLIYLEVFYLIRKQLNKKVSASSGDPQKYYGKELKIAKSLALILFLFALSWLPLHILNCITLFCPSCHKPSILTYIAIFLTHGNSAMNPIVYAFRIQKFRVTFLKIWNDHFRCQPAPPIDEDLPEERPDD

Cc1cc(Oc2cnn(C)c2)cc(C(=O)Nc2ccc(F)cn2)n1 [22iA]
% inh at 10 μM (Thyroid Hormone): -2% | fraction unbound at 6 h, 1 µM [1]: 0.012 | inhibition at 10 µM [2]: 6% | inhibition at 10 µM (Histamine H3): 5% | inhibition at 10 µM (Cannabinoid CB1): 15% | inhibition at 10 µM (Histamine H2): -4% | inhibition at 10 µM (Adrenergic α1A): 0% | inhibition at 10 µM (Histamine H1): 24% | inhibition at 10 µM (Dopamine D3): -6% | inhibition at 10 µM (Bradykinin B1): 4% | inhibition at 10 µM (Adrenergic α2A): 8% | inhibition at 10 µM (Dopamine D1): -2% | inhibition at 10 µM (Adrenergic α1B): 3% | inhibition at 10 µM (Glucocorticoid): 10% | inhibition at 10 µM (Bradykinin B2): 1% | inhibition at 10 µM (Dopamine D2S): -10% | inhibition at 10 µM (Estrogen Erα): 4% | inhibition at 10 µM (Dopamine D4.4): -9% | inhibition at 10 µM (GABAB1A): 3% | inhibition at 10 µM (Adrenergic α1D): 3% | inhibition at 10 µM (Endothelin ETB): -13% | inhibition at 10 µM (Adrenergic β2): -5% | inhibition at 10 µM (Adrenergic β1): -4% | inhibition at 10 µM (Endothelin ETA): -2% | inhibition at 10 µM (Adenosine A1): 20% | inhibition at 10 µM (Prostanoid EP4): 8% | IC50 (CYP 3A4): ≥ 30 µM | inhibition at 10 µM [3]: -12%

From paper PMC11647725, “Discovery of 4-(5-Membered)Heteroarylether-6-methylpicolinamide Negative Allosteric Modulators of Metabotropic Glutamate Receptor Subtype 5” (ACS Medicinal Chemistry Letters, 2024)
